Conditions: pH 6

SMILES: NC(=O)c1cccnc1 [Nicotinamide]
- Effect on SNAC solubility: concentration dependent effect

From patent publication US20230000949A1, “SOLID COMPOSITIONS COMPRISING A PCSK9 INHIBITOR AND A SALT OF N-(8-(2-HYDROXYBENZOYL)AMINO)CAPRYLIC ACID” (Novo Nordisk A/S, priority 2019, published 2023)
